The target in test [1] is T1, Disks large homolog 4 (Homo sapiens, UniProt P78352). In words: Binding affinity to human PSD95 domain PDZ3 expressed in Escherichia coli BL21-DE3 by fluorescence polarization assay.
The target in test [2] is T1, Disks large homolog 4. Description: Binding affinity to human PSD95 domain PDZ1 expressed in Escherichia coli BL21-DE3 by fluorescence polarization assay. (In general: In fluorescence polarisation assays a small probe gives low polarisation when free and higher when bound to something large.)
Target sequence in this assay (P78352 whole entry, the tested form may be a part): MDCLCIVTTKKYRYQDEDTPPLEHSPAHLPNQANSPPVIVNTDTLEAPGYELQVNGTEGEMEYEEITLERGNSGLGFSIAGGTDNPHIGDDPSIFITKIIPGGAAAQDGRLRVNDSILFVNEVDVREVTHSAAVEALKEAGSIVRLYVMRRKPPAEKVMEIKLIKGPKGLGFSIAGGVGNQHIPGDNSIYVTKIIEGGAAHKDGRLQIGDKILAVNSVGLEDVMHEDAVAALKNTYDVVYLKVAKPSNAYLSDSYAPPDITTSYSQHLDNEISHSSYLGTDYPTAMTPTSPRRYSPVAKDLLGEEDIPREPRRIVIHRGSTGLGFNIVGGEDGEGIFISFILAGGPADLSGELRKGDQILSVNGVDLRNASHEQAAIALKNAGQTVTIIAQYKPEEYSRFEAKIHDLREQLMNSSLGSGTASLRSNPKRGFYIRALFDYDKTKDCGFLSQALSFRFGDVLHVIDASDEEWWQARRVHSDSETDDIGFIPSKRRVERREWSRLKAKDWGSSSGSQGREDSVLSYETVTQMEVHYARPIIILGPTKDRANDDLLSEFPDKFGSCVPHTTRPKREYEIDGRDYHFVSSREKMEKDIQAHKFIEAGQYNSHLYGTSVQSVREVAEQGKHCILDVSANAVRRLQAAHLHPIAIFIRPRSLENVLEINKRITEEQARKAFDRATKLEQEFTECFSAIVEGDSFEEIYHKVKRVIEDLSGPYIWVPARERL
Test [3] has as its target T1, Disks large homolog 4. In words: Binding affinity to human PSD95 domain PDZ2 expressed in Escherichia coli BL21-DE3 by fluorescence polarization assay.
Target sequence in this assay (P78352 whole entry, the tested form may be a part): as above
The target of test [4] is T1, Disks large homolog 4. Description: Binding affinity to human PSD95 domain PDZ2 expressed in Escherichia coli BL21-DE3 by fluorescence polarization assay.
Target sequence in this assay (P78352 whole entry, looked up, the tested form may be a part): as the sequence (P78352 whole entry, the tested form may be a part) above
Test [5] concerns the target T1, Disks large homolog 4. In words: Binding affinity to human PSD95 domain PDZ1 expressed in Escherichia coli BL21-DE3 by fluorescence polarization assay.
Target sequence in this assay (P78352 whole entry, looked up, the tested form may be a part): as the sequence (P78352 whole entry, the tested form may be a part) above

Active and inactive are the calls of the source. The rule behind the calls is not given here. Where a SMILES comes first, the peptide text is derived from it. [ ]: non-standard residue; d: D form. NMeV = CN[C@H](C(=O)O)C(C)C; NMeS = CN[C@@H](CO)C(=O)O; hSer = N[C@@H](CCO)C(=O)O; Abu = CC[C@H](N)C(=O)O; Aib = CC(C)(N)C(=O)O

For `CC(C)[C@H](NC(=O)[C@H](C)NC(=O)[C@@H](NC(=O)[C@H](CCC(=O)O)NCCC1CCCCC1)[C@@H](C)O)C(=O)O`, affinity in test [1] was put at a Ki of 11000 nM.

`CN[C@@H](CCC(=O)O)C(=O)N[C@H](C(=O)N[C@@H](C)C(=O)N[C@H](C(=O)O)C(C)C)[C@@H](C)O`: the inhibition constant Ki (as a rule, the equilibrium dissociation constant of an inhibitor or competing ligand from its target) in test [2] turned out to be 11000 nM. This lies in the double-digit micromolar range.

Consider `CC(C)[C@H](NC(=O)[C@H](C)NC(=O)[C@@H](NC(=O)[C@H](CCC(=O)O)NCCc1ccc2ccccc2c1)[C@@H](C)O)C(=O)O`, for which the inhibition constant (Ki) in test [2] is 1000 nM.

In the case of `CC(C)[C@H](NC(=O)[C@H](C)NC(=O)[C@@H](NC(=O)[C@H](CCC(=O)O)NCCCc1ccc(F)c(F)c1)[C@@H](C)O)C(=O)O`, the inhibition constant (Ki) in test [3] was determined as 1000 nM. This counts as single-digit micromolar.

In turn, `CC(C)[C@H](NC(=O)[C@H](C)NC(=O)[C@@H](NC(=O)[C@H](CCC(=O)O)NCC1CCCCC1)[C@@H](C)O)C(=O)O` displayed a Ki in test [2] of 1000 nM.

Turning to `CC(C)[C@H](NC(=O)[C@H](CC(=O)O)NC(=O)[C@@H](NC(=O)[C@@H](N)CCC(=O)O)C(C)(C)CO)C(=O)O`, the outcome in test [4] and in test [5] was inactive.

In the case of `CC(C)[C@H](NC(=O)[C@H](CC(=O)O)NC(=O)[C@@H](NC(=O)[C@@H](N)CCC(=O)O)[C@H](C)CO)C(=O)O`, the result in test [4] and in test [5] was inactive.

Turning to `CC[C@H](C)[C@H](NC(=O)[C@H](CO)NC(=O)[C@H](CO)NC(=O)[C@H](CC(C)C)NC(=O)[C@H](CCCCN)NC(=O)[C@H](CCCNC(=N)N)NC(=O)[C@H](CCCNC(=N)N)NC(=O)[C@H](CCCNC(=N)N)NC(=O)[C@H](CCC(N)=O)NC(=O)[C@H](CCCNC(=N)N)NC(=O)[C@H](CCCNC(=N)N)NC(=O)[C@H](CCCCN)NC(=O)[C@H](CCCCN)NC(=O)[C@H](CCCNC(=N)N)NC(=O)CNC(=O)[C@@H](N)Cc1ccc(O)cc1)C(=O)N[C@@H](CCC(=O)O)C(=O)N[C@@H](CO)C(=O)N[C@@H](CC(=O)O)C(=O)N[C@H](C(=O)O)C(C)C`, in test [1], the outcome was inactive.

Take `CC[C@H](NC(=O)[C@H](CC(=O)O)NC(=O)[C@H](CO)NC(=O)[C@@H](N)CCC(=O)O)C(=O)O` (H-ESD[Abu]-OH): the outcome in test [4] was inactive.

On to `CC(C)(NC(=O)[C@H](CC(=O)O)NC(=O)[C@H](CO)NC(=O)[C@@H](N)CCC(=O)O)C(=O)O` (H-ESD[Aib]-OH), for which the outcome in test [4] and in test [5] was inactive.

For the compound `CC(C)[C@@H](C(=O)O)N(C)C(=O)[C@H](CC(=O)O)NC(=O)[C@H](CO)NC(=O)[C@@H](N)CCC(=O)O` (H-ESD[NMeV]-OH), the result in test [4] and in test [5] was inactive.

`CC(C)[C@H](NC(=O)[C@H](CC(=O)O)NC(=O)[C@H](CO)N(C)C(=O)[C@@H](N)CCC(=O)O)C(=O)O` (H-E[NMeS]DV-OH): the result in test [4] and in test [5] was inactive.

On to `CC(C)[C@H](NC(=O)[C@H](CC(=O)O)NC(=O)[C@H](CCO)NC(=O)[C@@H](N)CCC(=O)O)C(=O)O` (H-E[hSer]DV-OH), for which the result in test [4] and in test [5] was inactive.

Consider H-KSGYEKLSSIESDV-OH, for which, in test [1], the outcome was inactive.
